Reference: patent publication US20250019381A1, “PROCESS FOR THE […] OF 6-((3S,4S)-4-METHYL-1-(PYRIMIDIN-2-[…])PYRROLIDIN-3-YL)-3-(TETRAHYDROPYRAN-4-YL-7H-IMIDAZO[1,5-a]PYRAZIN-8-ONE” (Cardurion Pharmaceuticals, Inc., priority 2017, published 2025)

What was measured:
[1] = Blood Brain Barrier penetration: plasma and brain concentration; format: in vivo
PDE9 = PDE9 (Homo sapiens (Human), UniProt O76083); format: biochemical
PDE1 = PDE1 inhibition IC50; format: biochemical
[2] = Stability study of drug substance in polyethylene/aluminum pouches; format: physicochemical; conditions: solid, ambient temperature and 40° C.-45° C. (no humidity control), 3-month period
Protocol: A stability study has been completed on Compound P3.1. Samples of Compound P3.1 were aliquoted into double-walled polyethylene pouches, which were tied off and then heat-scaled in an aluminum pouch. Samples were stored at ambient temperature and at 40° C.-45° C. (no humidity control) with testing performed over a 3-month period.

[3] = Stability study of solution in purified water; format: physicochemical; conditions: approximately 40 mg/mL in purified water, refrigerated and ambient, 8 days
Protocol: In another stability study, Compound P3.1 was dissolved at approximately 40 mg/mL of purified water and evaluated for purity over a period of 8 days. Samples were stored at both refrigerated and ambient conditions, and tested at T=0, Day 2, and Day 8.

Chain of PDE9 (O76083 whole entry): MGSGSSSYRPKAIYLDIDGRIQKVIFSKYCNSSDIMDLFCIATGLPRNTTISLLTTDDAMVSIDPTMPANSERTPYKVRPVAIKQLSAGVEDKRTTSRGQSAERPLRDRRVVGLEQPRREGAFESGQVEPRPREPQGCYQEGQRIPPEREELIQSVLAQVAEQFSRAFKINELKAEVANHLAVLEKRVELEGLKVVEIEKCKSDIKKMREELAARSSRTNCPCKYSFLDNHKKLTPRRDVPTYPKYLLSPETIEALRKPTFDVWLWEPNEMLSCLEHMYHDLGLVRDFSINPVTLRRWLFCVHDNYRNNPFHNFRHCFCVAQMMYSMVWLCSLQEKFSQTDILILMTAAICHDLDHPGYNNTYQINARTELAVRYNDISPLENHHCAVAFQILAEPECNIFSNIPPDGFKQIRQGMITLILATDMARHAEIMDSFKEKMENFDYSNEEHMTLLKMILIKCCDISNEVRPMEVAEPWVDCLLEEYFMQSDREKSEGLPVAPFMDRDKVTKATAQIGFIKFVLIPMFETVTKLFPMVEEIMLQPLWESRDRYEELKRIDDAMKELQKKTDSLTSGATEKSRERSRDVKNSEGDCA

For `O=c1[nH]c(CN2CC(Oc3cccnc3)C2)cn2c(C3CCOCC3)ncc12` [Compound P2], which “Brain concentration after 30 minutes” value ([1]; 30 min) is on record?
The value was “Below”.

What about the “Brain concentration after 120 minutes” value ([1]; 120 min) of the same compound?
Its value is “Below”.

With `C[C@@H]1CN(Cc2ncccn2)C[C@H]1c1cn2c(C3CCOCC3)ncc2c(=O)[nH]1` [Compound P3.1, (3S,4S)-6-(4-methyl-1-pyrimidin-2-ylmethyl-pyrrolidin-3-yl)-3-(tetrahydro-pyran-4-yl)-7H-imidazo[1,5-a]pyrazin-8-one] as the compound, how does the IC50 (PDE9) read?
The IC50 was 10 nM.

What about the IC50 (PDE1) of the same compound?
Its IC50 is 3000 nM.

And the “Brain concentration after 30 minutes” value ([1]; 30 min)?
The value was 30 min.: 67 ng/mL.

And the “Brain concentration after 120 minutes” value ([1]; 120 min)?
The value was 120 min.: 7 ng/mL.

What about the “Plasma concentration after 30 minutes” value ([1]; plasma, 30 min) of the same compound?
Its value is 30 min.: 1620 ng/mL.

And the “Plasma concentration after 120 minutes” value ([1]; plasma, 120 min)?
The value was 120 min.: 226 ng/mL.

And the “Changes to appearance or purity of the material on storage” value [2]?
Its value is “no changes to appearance or purity”.

And the “Change to purity of the compound or appearance of the solution” value [3]?
The value was “No significant change”.

With `O=c1[nH]c(CN2CC(OCc3ccc(F)cc3)C2)nn2c(C3CCOCC3)ncc12` [Compound P4] as the compound, how does the “Plasma concentration after 120 minutes” value ([1]; plasma, 120 min) read?
The value was 120 min.: 352 ng/mL.

For `O=c1[nH]c(CN2CC(Oc3ccncc3)C2)cn2c(-c3ccc(F)cc3)ncc12` [Compound P1], which “Brain/Plasma ratio after 30 minutes” value ([1]; 30 min) is on record?
Its value is 0.06.

And the “Brain/Plasma ratio after 120 minutes” value ([1]; 120 min)?
Its value is 0.08.

Which IC50 (PDE1) does the source give for `C[C@@H]1CN(Cc2ncccn2)C[C@H]1c1nc2c(cnn2C2CCOCC2)c(=O)[nH]1` (relative stereo) here?
The IC50 was 2500 nM.
